According to patent publication US20240067631A1, “PYRAZOLE DERIVATIVES USEFUL AS NAMPT MODULATORS” (Cytokinetics, Inc., priority 2020, published 2024):

Legend:
human NAMPT = human NAMPT (Homo sapiens (Human), UniProt P43490); experiment: Human recombinant enzyme assay (NMN fluorescence biochemical assay); details: 6 nM human NAMPT, 60 min; for AC1.4 Human: concentration of compound that generates 40% higher activity over basal; for EC50: concentration that gives half-maximal activation
Outline: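 Recombinant human NAMPT (6 nM) with 2.5 mM ATP, […] PRPP and […] nicotinamide in HEPES pH 7.2 with DTT, CHAPS, NaCl, MgCl2; 60 min at ambient temperature. NMN derivatised with acetophenone/KOH/formic acid, fluorescence read at 355/460 nm. AC1.4 (40% above basal) and EC50 reported.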

endogenous NAMPT = endogenous NAMPT (Homo sapiens (Human), UniProt P43490); experiment: Cellular NAD+ modulation assay in SH-SY5Y cells with doxorubicin; type: cell-based; details: Neuroblastoma SH-SY5Y cells, 40 hours, cellular NAD levels; for EC50: read-out: SY5Y (human) NAD Cell Dox EC50
Protocol: The compounds described herein were also assayed for their ability to stimulate the endogenous NAMPT in a native cellular environment in the cellular NAD+ modulation assay, which measures the ability of the compound to modulate cellular NAD levels. Increased levels of NAD are expected by compounds that permeate the cells and activate the catalytic activity of the endogenous NAMPT.
Neuroblastoma SH-SY5Y cells were grown in 1:1 mixture of Eagle's Minimum Essential Medium and F12 Medium, along with 10% fetal bovine serum, in a humidified incubator with an atmosphere of 95% air and 5% CO2 at 37° C. The assays were initiated by plating 20 μL of SH-SY5Y cells in culture medium with 0.1% fetal bovine serum, at a density of 5000 cells per well to a 384-well Corning™ BioCoat™ Poly-D-Lysine Multiwell Plates. The plates were incubated in the 37° C. incubators for a period of 5 hours. Compounds in DMSO were added to the plates in a volume of 120 nL using the Labcyte Echo Liquid Handlers. 5 μL of a 1.5 uM Doxorubicin solution in assay medium is added to each well. The plates are then incubated for 40 hours. 30 μL of a readout-solution containing 0.2 U/mL Diaphorase enzyme, 40 uM resazurin, 10 uM FMN, 0.8 U/mL Alcohol dehydrogenase, 3% ethanol, 0.4 mg/mL bovine serum albumin, 0.2% Triton X-100 in 100 mM Tris-HCl, 30 mM EDTA, pH 8.4. The plates were read for fluorescence (Excitation/Emission=540 nm/590 nm) using an EnVision plate reader after 60 mins of incubation at ambient temperature.

endogenous NAMPT, sequence (P43490 whole entry): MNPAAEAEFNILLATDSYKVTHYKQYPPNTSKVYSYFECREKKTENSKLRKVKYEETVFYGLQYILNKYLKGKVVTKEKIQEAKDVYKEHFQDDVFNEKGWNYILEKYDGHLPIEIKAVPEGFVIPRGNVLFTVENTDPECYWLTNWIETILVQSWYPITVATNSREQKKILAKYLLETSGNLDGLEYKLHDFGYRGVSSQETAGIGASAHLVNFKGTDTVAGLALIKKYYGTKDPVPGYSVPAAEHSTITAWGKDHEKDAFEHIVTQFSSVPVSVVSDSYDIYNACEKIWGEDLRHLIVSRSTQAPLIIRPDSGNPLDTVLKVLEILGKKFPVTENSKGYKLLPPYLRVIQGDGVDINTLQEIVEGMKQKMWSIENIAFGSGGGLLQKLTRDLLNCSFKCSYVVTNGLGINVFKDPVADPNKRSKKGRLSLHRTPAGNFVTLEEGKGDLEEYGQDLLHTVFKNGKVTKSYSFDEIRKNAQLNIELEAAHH
human NAMPT, sequence (P43490 whole entry): as above

| Compound | AC1.4 Human (human NAMPT) [µM] | EC50 (human NAMPT) [µM] | SY5Y (human) NAD Cell Dox AC0.3 (endogenous NAMPT) [µM] | EC50 (endogenous NAMPT) [µM] |
| --- | --- | --- | --- | --- |
| Cc1nc(C(=O)N[C@H](C)c2cccc(F)n2)nc(NCCc2cn[nH]c2)c1C [Compound 4, (R)-4-((2-(1H-pyrazol-4-yl)ethyl)amino)-N-(1-(6-fluoropyridin-2-yl)ethyl)-5,6-dimethylpyrimidine-2-carboxamide] | 0.02 | 0.105 | 0.07 | 0.11 |
| Cc1nc(C(=O)N(C)C(c2cccc(F)c2)c2nccn2C)nc(NCCc2cn[nH]c2)c1C (stereo not shown) [Compound 5, 4-((2-(1H-pyrazol-4-yl)ethyl)amino)-N-((3-flurophenyl)(1-methyl-1H-imidazol-2-yl)methyl)-N,5,6-trimethylpyrimidine-2-carboxamide] | 0.0235 | 0.449 | 2.68 | 1.76 |
| Cc1nc(C(=O)N2CCOCC2c2cccc(F)c2)nc(NCCc2cn[nH]c2)c1C (stereo not shown) [Compound 7, (4-((2-(1H-pyrazol-4-yl)ethyl)amino)-5,6-dimethylpyrimidin-2-yl)(3-(3-fluorophenyl)morpholino)methanone] | 0.029 | 0.326 | 0.19 | 0.19 |
| Cc1nc(C(=O)N[C@@H](C)c2cccc(F)c2)nc(NCCc2cn[nH]c2)c1C [Compound 10, (S)-4-((2-(1H-pyrazol-4-yl)ethyl)amino)-N-(1-(3-fluorophenyl)ethyl)-5,6-dimethylpyrimidine-2-carboxamide] | 0.046 | 0.52 | 0.2 | 0.47 |
| Cc1nc(C(=O)NCCc2cncc(F)c2)nc(NCCc2cn[nH]c2)c1C [Compound 129, 4-((2-(1H-pyrazol-4-yl)ethyl)amino)-N-(2-(5-fluoropyridin-3-yl)ethyl)-5,6-dimethylpyrimidine-2-carboxamide] | 3.249 | 21.3 |  |  |
| Cc1ccc(C(C)NC(=O)c2nc(C)c(C)c(NCCc3cn[nH]c3)n2)s1 (stereo not shown) [Compound 130, 4-((2-(1H-pyrazol-4-yl)ethyl)amino)-5,6-dimethyl-N-(1-(5-methylthiophen-2-yl)ethyl)pyrimidine-2-carboxamide] | 3.2975 | 41 |  |  |
| Cc1cccc([C@H]2CCCN2C(=O)c2nc(C)c(C)c(NCCc3cn[nH]c3)n2)n1 [Compound 131, (R)-(4-((2-(1H-pyrazol-4-yl)ethyl)amino)-5,6-dimethylpyrimidin-2-yl)(2-(6-methylpyridin-2-yl)pyrrolidin-1-yl)methanone] | 3.487 | 10.8 |  |  |
| Cc1nc(C(=O)N2CCC2c2ccccc2)nc(NCCc2cn[nH]c2)c1C (stereo not shown) [Compound 132, (4-((2-(1H-pyrazol-4-yl)ethyl)amino)-5,6-dimethylpyrimidin-2-yl)(2-phenylazetidin-1-yl)methanone] | 3.5055 | 13.1 |  |  |
| Cc1nc(C(=O)NCc2ccncc2)nc(NCCc2cn[nH]c2)c1C [Compound 133, 4-((2-(1H-pyrazol-4-yl)ethyl)amino)-5,6-dimethyl-N-(pyridin-4-ylmethyl)pyrimidine-2-carboxamide] | 3.5315 | 28.9 |  |  |
| Cc1nc(C(=O)NC(c2ccc(F)c(F)c2)c2nccn2C)nc(NCCc2cn[nH]c2)c1C (stereo not shown) [Compound 134, 4-((2-(1H-pyrazol-4-yl)ethyl)amino)-N-((3,4-difluorophenyl)(1-methyl-1H-imidazol-2-yl)methyl)-5,6-dimethylpyrimidine-2-carboxamide] | 3.578 | 26.2 |  |  |
| Cc1nc(C(=O)N[C@H]2C[C@@H](c3ccccc3)C2)nc(NCCc2cn[nH]c2)c1C [Compound 135, 4-((2-(1H-pyrazol-4-yl)ethyl)amino)-5,6-dimethyl-N-((1s,3s)-3-phenylcyclobutyl)pyrimidine-2-carboxamide] | 3.7335 | 17.5 |  |  |
| Cc1nc(C(=O)NC(c2cccnc2)C(F)(F)F)nc(NCCc2cn[nH]c2)c1C (stereo not shown) [Compound 136, 4-((2-(1H-pyrazol-4-yl)ethyl)amino)-5,6-dimethyl-N-(2,2,2-trifluoro-1-(pyridin-3-yl)ethyl)pyrimidine-2-carboxamide] | 3.778 | 50.2 |  |  |
| Cc1nc(C(=O)N[C@@H](C)c2ccccn2)nc(NCCc2cn[nH]c2)c1C [Compound 137, (S)-4-((2-(1H-pyrazol-4-yl)ethyl)amino)-5,6-dimethyl-N-(1-(pyridin-2-yl)ethyl)pyrimidine-2-carboxamide] | 3.794 | 34.5 |  |  |
| Cc1nc(C(=O)N2CCOCC2C(F)(F)F)nc(NCCc2cn[nH]c2)c1C (stereo not shown) [Compound 138, (4-((2-(1H-pyrazol-4-y)ethyl)amino)-5,6-dimethylpyrimidin-2-yl)(3-(trifluoromethyl)morpholino)methanone] | 4.125 | 30.7 |  |  |
| Cc1cccc(F)c1NC(=O)c1nc(C)c(C)c(NCCc2cn[nH]c2)n1 [Compound 139, 4-((2-(1H-pyrazol-4-yl)ethyl)amino)-N-(2-fluoro-6-methylphenyl)-5,6-dimethylpyrimidine-2-carboxamide] | 3.809 | 28.5 |  |  |
| Cc1nc(C(=O)Nc2ccccc2)nc(NCCc2cn[nH]c2)c1C [Compound 140, 4-((2-(1H-pyrazol-4-yl)ethyl)amino)-5,6-dimethyl-N-phenylpyrimidine-2-carboxamide] | 4.0885 | 18.4 |  |  |
| Cc1nc(C(=O)NCCS(=O)(=O)Cc2ccccc2)nc(NCCc2cn[nH]c2)c1C [Compound 141, 4-((2-(1H-pyrazol-4-yl)ethyl)amino)-N-(2-(benzylsulfonyl)ethyl)-5,6-dimethylpyrimidine-2-carboxamide] | 3.8305 | 20.3 |  |  |
| Cc1nc(C(=O)N2CC3(C2)C(=O)Nc2ccccc23)nc(NCCc2cn[nH]c2)c1C [Compound 142, 1-(4-((2-(1H-pyrazol-4-yl)ethyl)amino)-5,6-dimethylpyrimidine-2-carbonyl)spiro[azetidine-3,3′-indolin]-2′-one] | 4.3845 | 31.8 |  |  |

Results, then the molecule that gave them:

| AC1.4 Human (human NAMPT) [µM] | EC50 (human NAMPT) [µM] | SY5Y (human) NAD Cell Dox AC0.3 (endogenous NAMPT) [µM] | EC50 (endogenous NAMPT) [µM] | Compound |
| --- | --- | --- | --- | --- |
| 4.433 | 46 |  |  | Cc1nc(C(=O)NCCC(C)(C)C(F)(F)F)nc(NCCc2cn[nH]c2)c1C [Compound 143, 4-((2-(1H-pyrazol-4-yl)ethyl)amino)-5,6-dimethyl-N-(4,4,4-trifluoro-3,3-dimethylbutyl)pyrimidine-2-carboxamide] |
| 4.755 | 18.4 |  |  | Cc1nc(C(=O)Nc2ccncc2F)nc(NCCc2cn[nH]c2)c1C [Compound 144, 4-((2-(1H-pyrazol-4-yl)ethyl)amino)-N-(3-fluoropyridin-4-yl)-5,6-dimethylpyrimidine-2-carboxamide] |
| 4.9555 | 22.4 |  |  | Cc1nc(C(=O)NC2(c3ccccn3)CCC2)nc(NCCc2cn[nH]c2)c1C [Compound 145, 4-((2-(1H-pyrazol-4-yl)ethyl)amino)-5,6-dimethyl-N-(1-(pyridin-2-yl)cyclobutyl)pyrimidine-2-carboxamide] |
| 2.7 |  |  |  | C[C@@H](NC(=O)c1nc2c(c(NCCc3cn[nH]c3)n1)CCC2)c1cccc(F)n1 [Compound 146, (R)-4-((2-(1H-pyrazol-4-yl)ethyl)amino)-N-(1-(6-fluoropyridin-2-yl)ethyl)-6,7-dihydro-5H-cyclopenta[d] pyrimidine-2-carboxamide] |
| >31 |  |  |  | Cc1nc(C(=O)N2CCC[C@@H]2c2cccc(F)c2)nc(NCCc2cn[nH]c2)c1Cl [Compound 148, (R)-(4-((2-(1H-pyrazol-4-yl)ethyl)amino)-5-chloro-6-methylpyrimidin-2-yl)(2-(3-fluorophenyl)pyrrolidin-1-yl)methanone] |
| 0.12 |  |  |  | Cc1nc(C(=O)N2CCC[C@@H]2c2cccc(F)c2)nc(NCCc2cn[nH]c2)c1F [Compound 150, (R)-(4-((2-(1H-pyrazol-4-yl)ethyl)amino)-5-fluoro-6-methylpyrimidin-2-yl)(2-(3-fluorophenyl)pyrrolidin-1-yl)methanone] |
|  |  | 0.17 |  | C[C@@H](NC(=O)c1cc(Br)cc(NCCc2cn[nH]c2)n1)c1cccc(F)n1 [Compound 151, (R)-6-((2-(1H-pyrazol-4-yl)ethyl)amino)-4-bromo-N-(1-(6-fluoropyridin-2-yl)ethyl)picolinamide] |
| 12.6 |  |  |  | Cc1cc(NCCc2cn[nH]c2)nc(C(=O)N2CCC[C@@H]2c2cccc(F)c2)c1 [Compound 152] |
